Tests used:
galium = test: Test A postemergence herbicide test; format: in vivo, Galium aparine; settings: for Plant response rating, Galium: 125 g ai/ha, 0 to 100 scale; for Galium plant response rating (0 to 100 scale, 0 is no effect, 100 is complete control): 500 g ai/ha
Excerpt: (§1) At the same time, plants selected from these crop and weed species and also blackgrass (Alopecurus myosuroides), and galium (catchweed bedstraw, Galium aparine) were planted in pots containing the same blend of loam soil and sand and treated with postemergence applications of test chemicals formulated in the same manner. Plants ranged in height from 2 to 10 cm and were in the one- to two-leaf stage for the postemergence treatment. Treated plants and untreated controls were maintained in a greenhouse for approximately 10 days, after which time all treated plants were compared to untreated controls and visually evaluated for injury. Plant response ratings, summarized in Table A, are based on a 0 to 100 scale where 0 is no effect and 100 is complete control. A dash (-) response means no test result.

corn = test: Test A pre-/postemergence herbicide test; format: in vivo, Zea mays; settings: Postemergence; for Plant response rating, Corn: 125 g ai/ha, 0 to 100 scale; for Corn plant response rating (0 to 100 scale, 0 is no effect, 100 is complete control): 500 g ai/ha
Outline: (§2)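 Scoring was visual, relative to untreated controls, on a 0–100 scale after about 10 greenhouse days. Preemergence treatment used a directed soil spray over seeded loam/sand; postemergence treatment targeted one- to two-leaf plants of 2–10 cm.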

blackgrass = test: Test A postemergence herbicide test; format: in vivo, Alopecurus myosuroides; settings: for Plant response rating, Blackgrass: 125 g ai/ha, 0 to 100 scale; for Blackgrass plant response rating (0 to 100 scale, 0 is no effect, 100 is complete control): 500 g ai/ha
Excerpt: as §1

ragweed = test: Test A pre-/postemergence herbicide test; format: in vivo, Ambrosia elatior; settings: for Plant response rating, Ragweed: 0 to 100 scale
Excerpt: as §1, with “Seeds of plant species selected from bamyardgrass (Echinochloa crus-galli), kochia (Kochia scoparia), ragweed (common ragweed, Ambrosia elatior), ryegrass, Italian (Italian ryegrass, Lolium multiflorum), crabgrass, large (large crabgrass Digitaria sanguinalis), giant foxtail (Setaria faberii), morningglory (Ipomoea spp.), pigweed (Amaranthus retroflexus), velvetleaf (Abutilon theophrasti), wheat (Triticum aestivum), and corn (Zea mays) were planted into a blend of loam soil and sand and treated preemergence with a directed soil spray using test chemicals formulated in a non-phytotoxic solvent mixture which included a surfactant. At” for “At”

pigweed = test: Test A pre-/postemergence herbicide test; format: in vivo, Amaranthus retroflexus; settings: for Plant response rating, Pigweed: 0 to 100 scale
Outline: as §2

barnyardgrass = test: Test A pre-/postemergence herbicide test; format: in vivo, Echinochloa crus-galli
Outline: as §2

giant foxtail = test: Test A pre-/postemergence herbicide test; format: in vivo, Setaria faberii; settings: for Plant response rating, Foxtail, Giant: 0 to 100 scale
Outline: as §2

ryegrass, Italian = test: Test A pre-/postemergence herbicide test; format: in vivo, Lolium multiflorum; settings: for Plant response rating, Ryegrass, Italian: 0 to 100 scale
Excerpt: as §1, with “Seeds of plant species selected from bamyardgrass (Echinochloa crus-galli), kochia (Kochia scoparia), ragweed (common ragweed, Ambrosia elatior), ryegrass, Italian (Italian ryegrass, Lolium multiflorum), crabgrass, large (large crabgrass Digitaria sanguinalis), giant foxtail (Setaria faberii), morningglory (Ipomoea spp.), pigweed (Amaranthus retroflexus), velvetleaf (Abutilon theophrasti), wheat (Triticum aestivum), and corn (Zea mays) were planted into a blend of loam soil and sand and treated preemergence with a directed soil spray using test chemicals formulated in a non-phytotoxic solvent mixture which included a surfactant. At” for “At”

kochia = test: Test A pre-/postemergence herbicide test; format: in vivo, Kochia scoparia; settings: for Plant response rating, Kochia: 0 to 100 scale
Excerpt: as §1, with “Seeds of plant species selected from bamyardgrass (Echinochloa crus-galli), kochia (Kochia scoparia), ragweed (common ragweed, Ambrosia elatior), ryegrass, Italian (Italian ryegrass, Lolium multiflorum), crabgrass, large (large crabgrass Digitaria sanguinalis), giant foxtail (Setaria faberii), morningglory (Ipomoea spp.), pigweed (Amaranthus retroflexus), velvetleaf (Abutilon theophrasti), wheat (Triticum aestivum), and corn (Zea mays) were planted into a blend of loam soil and sand and treated preemergence with a directed soil spray using test chemicals formulated in a non-phytotoxic solvent mixture which included a surfactant. At” for “At”

wheat = test: Test A pre-/postemergence herbicide test; format: in vivo, Triticum aestivum; settings: Postemergence; for Plant response rating, Wheat: 125 g ai/ha, 0 to 100 scale; for Wheat plant response rating (0 to 100 scale, 0 is no effect, 100 is complete control): 500 g ai/ha
Outline: as §2

[1] = 0 no effect, 100 complete control
[2] = 125 g ai/ha, visual rating, 0 no effect, 100 complete control, approximately 10 days, preemergence
[3] = Postemergence, 125 g ai/ha, 0 no effect, 100 complete control
[4] = 125 g ai/ha, visual rating, 0 to 100 scale, 0 no effect, 100 complete control, approximately 10 days, preemergence
[5] = preemergence, 500 g ai/ha, 0 to 100 scale (0 no effect, 100 complete control)
[6] = 0 is no effect, 100 is complete control
[7] = Postemergence, 125 g ai/ha, 0 is no effect, 100 is complete control
[8] = preemergence, 500 g ai/ha, 0 is no effect and 100 is complete control
[9] = Postemergence, 125 g ai/ha, 0 to 100 scale, 0 is no effect, 100 is complete control

SMILES	Galium plant response rating (0 to 100 scale, 0 is no effect, 100 is complete control) (galium)	Corn plant response rating (0 to 100 scale, 0 is no effect, 100 is complete control) (corn)	Blackgrass plant response rating (0 to 100 scale, 0 is no effect, 100 is complete control) (blackgrass)	Plant response rating, Ragweed (ragweed; [2])	Ragweed plant response rating (0 to 100 scale, 0 is no effect, 100 is complete control) (ragweed; Postemergence, 500 g ai/ha)	Plant response rating, Pigweed (pigweed; [2])	Pigweed plant response rating (0 to 100 scale, 0 is no effect, 100 is complete control) (pigweed; Postemergence, 500 g ai/ha)	Plant response rating, Barnyardgrass (barnyardgrass; [4])	Barnyardgrass plant response rating (0 to 100 scale, 0 is no effect, 100 is complete control) (barnyardgrass; Postemergence, 500 g ai/ha)	Plant response rating, Barnyardgrass (barnyardgrass; [5])	Plant response rating, Foxtail, Giant (giant foxtail; [2])	Foxtail, Giant plant response rating (0 to 100 scale, 0 is no effect, 100 is complete control) (giant foxtail; Postemergence, 500 g ai/ha)	Plant response rating, Foxtail, Giant (giant foxtail; preemergence, 500 g ai/ha)	Plant response rating, Ryegrass, Italian (ryegrass, Italian; [2])	Ryegrass, Italian plant response rating (0 to 100 scale, 0 is no effect, 100 is complete control) (ryegrass, Italian; Postemergence, 500 g ai/ha)	Plant response rating, Kochia (kochia; [2])	Kochia plant response rating (0 to 100 scale, 0 is no effect, 100 is complete control) (kochia; Postemergence, 500 g ai/ha)	Wheat plant response rating (0 to 100 scale, 0 is no effect, 100 is complete control) (wheat)	Plant response rating, Galium (galium; [6])	Plant response rating, Corn (corn; [6])	also measured
Cc1ccc(C2CNC(=O)C2C(=O)Nc2ccc(F)cc2F)cc1F (racemic) [Compound 145]	50	0	30	0	20	0	0	80	90	90	70	70	90	0	0	0	20	0			Plant response rating, Galium (galium; [1]): 20; Plant response rating, Corn (corn; [1]): 0; Plant response rating, Blackgrass (blackgrass; [1]): 0; Plant response rating, Ragweed (ragweed; [3]): 0; Plant response rating, Ragweed (ragweed; preemergence, 500 g ai/ha): 0; Plant response rating, Pigweed (pigweed; [3]): 0; Plant response rating, Pigweed (pigweed; preemergence, 500 g ai/ha): 0; Plant response rating, Barnyardgrass (barnyardgrass; Postemergence, 125 g ai/ha, 0 to 100 scale, 0 no effect, 100 complete control): 70; Plant response rating, Foxtail, Giant (giant foxtail; [3]): 40; Plant response rating, Ryegrass, Italian (ryegrass, Italian; [3]): 0; Plant response rating, Ryegrass, Italian (ryegrass, Italian; preemergence, 500 g ai/ha): 0; Plant response rating, Kochia (kochia; [3]): 0; Plant response rating, Kochia (kochia; preemergence, 500 g ai/ha): 0; Plant response rating, Wheat (wheat; [1]): 0
O=C1NCC(c2cc(F)cc(F)c2)C1C(=O)Nc1ccc(F)cc1F (racemic) [Compound 156]	30	30	20	0	30	0	20	90	80	90	90	80	90	0	30	20	20	40	20	20	Plant response rating, Blackgrass (blackgrass; [6]): 0; Plant response rating, Ragweed (ragweed; [7]): 0; Plant response rating, Ragweed (ragweed; [8]): 0; Plant response rating, Pigweed (pigweed; [7]): 0; Plant response rating, Pigweed (pigweed; [8]): 0; Plant response rating, Barnyardgrass (barnyardgrass; [9]): 80; Plant response rating, Foxtail, Giant (giant foxtail; [7]): 80; Plant response rating, Ryegrass, Italian (ryegrass, Italian; [7]): 20; Plant response rating, Ryegrass, Italian (ryegrass, Italian; [8]): 30; Plant response rating, Kochia (kochia; [7]): 0; Plant response rating, Kochia (kochia; [8]): 40; Plant response rating, Wheat (wheat; [6]): 0
Cc1cccc(NC(=O)C2C(=O)NCC2c2cccc(C(F)(F)F)c2)c1F (racemic) [Compound 184]	20	20	20	0	0	0	0	70	80		90	80		0	20	0	0	40	0	0	Plant response rating, Blackgrass (blackgrass; [6]): 0; Plant response rating, Ragweed (ragweed; [7]): 0; Plant response rating, Ragweed (ragweed; [8]): 0; Plant response rating, Pigweed (pigweed; [7]): 0; Plant response rating, Pigweed (pigweed; [8]): 0; Plant response rating, Barnyardgrass (barnyardgrass; [9]): 70; Plant response rating, Barnyardgrass (barnyardgrass; preemergence, 500 g ai/ha, 0 to 100 scale, 0 is no effect and 100 is complete control): 90; Plant response rating, Foxtail, Giant (giant foxtail; [7]): 70; Plant response rating, Foxtail, Giant (giant foxtail; [8]): 90; Plant response rating, Ryegrass, Italian (ryegrass, Italian; [7]): 0; Plant response rating, Ryegrass, Italian (ryegrass, Italian; [8]): 0; Plant response rating, Kochia (kochia; [7]): 0; Plant response rating, Kochia (kochia; [8]): 20; Plant response rating, Wheat (wheat; [6]): 0

Source: patent US10294202B2, “Pyrrolidinones as herbicides” (FMC Corporation, priority 2013, dated 2019)
